Common to all, as to assay type: cell-based
One test relates to DU4475. Briefly: Proliferation inhibition test, Wnt mutant cell line DU4475. The note with it: DU4475, 96 h culture with compound, read-out: Antiproliferation IC50 DU4475. An excerpt: (§1) The cell lines used in the experiment are Colo205, H929, HepG2, and DU4475, which have sustained activation of the Wnt pathway and whose proliferation is Wnt pathway-dependent. On the other hand, RKO cell line, in which normally the Wnt pathway is not activated and whose proliferation is not Wnt pathway-dependent, was used as a control cell line. This was done to determine whether the inhibitory effect of the compound of the present disclosure on Wnt-dependent proliferation is due to other nonspecific toxicity.
(§2) Colo205, H929, DU4475, HepG2 and RKO cell lines cultured in their respective culture media were treated in the logarithmic growth phase, and the cells were collected and prepared into a uniform cell suspension of known concentration, and then added to a 96-well cell culture plate so that each well contained 1000-4000 cells. Place in a 5% CO2 cell culture incubator and culture at 37° C. for 20-24 h. On the second day, add the completely dissolved, 3-fold gradient dilution compound to each cell culture well to make the final maximum concentration in the cell culture well 10 uM, and continue to culture for 96 h. This test uses Promega's cell activity detection test for detection. The more the cells proliferate, the stronger the final signal intensity. The detection instrument is SpectraMax, full wavelength mode. The wells with only DMSO added were used as positive control wells, and the wells without cells inoculated were used as negative control wells.

The next test concerns RKO. Briefly: Proliferation inhibition test, non-Wnt mutant control cell line RKO. The note with it: RKO (Wnt pathway not activated, control), 96 h culture, maximum concentration 10 uM, read-out: Antiproliferation IC50 RKO.
Description: as §1, §2

The subject of another test is Colo205. Nature of the test: Proliferation inhibition test, Wnt mutant cell line Colo205. The note with it: Colo205, 96 h culture with compound, read-out: Antiproliferation IC50 Colo205.
Description: as §1, §2

The subject of test [1] is Colo205-LUC-TCF/LEF reporter gene. Nature of the test: Colo205-LUC-TCF/LEF M1 reporter cell line luciferase inhibition. The note with it: 4 h, 4 hours incubation, firefly luciferase signal. The method, then: Colo205 cell line (Cell Bank of Chinese Academy of Sciences, Cat #TCHul02) was purchased from the Cell Bank of Chinese Academy of Sciences. After expansion and subculture, during the exponential growth phase, luciferase reporter plasmid (Promega) driven by TCF/LEF transcription factor was transfected by lipo3000 liposome transfection. The plasmid carries a resistance gene for resistance screening. Transfection was carried out in 10 cm culture dishes using conventional complete medium without resistance. After 2 days, the medium with resistance was replaced, and the culture was continued. After that, the medium with resistance was replaced every 2 days, and the suspended cells were discarded. The original medium was centrifuged to remove cells and debris and retained as an adaptive medium. When the cells covered the culture dish, the cells were digested, counted, and passaged in a 96-well plate, so that the average number of cells contained in each well was 1.5/well, and the adaptive medium was used for passage. The rest of the cells were frozen. After passage, culture for 4 hours to allow the cells to adhere to the wall, and then observe the number of cells in each well under a microscope. Wells with only 1 cell per well were labeled as monoclonal wells. Afterwards, normal culture was performed, and the culture medium was replaced every 2 days, and observed. There are wells where the monoclonal cells continue to grow in the early stage, and they are labeled twice, and can be replaced with normal medium with resistance. When a monoclonal well was overgrown with a 96-well plate, it is digested and passaged to a 24-well culture plate. After the 24-well plate is overgrown, it is passaged to a 96-well plate and a 6-well plate. The cells in a 96-well plate are at least 6 wells, of which 3 wells were added with known Wnt inhibitors, and the other 3 wells were not treated. After 24 hours, the cells in the 96-well plate were added with a fluorescence detection reagent to detect the fluorescence intensity. Cell lines with fluorescent expression when not treated and decreased fluorescent light after inhibition were selected and further cultured. The Colo205-LUC-TCF/LEF-M1 cell line is one of the cell lines screened above. Its growth curve, cell shape, and cell growth state are similar to those of the original Colo205 cells, and the ratio of the fluorescent signals of the inhibitor-treated and untreated cells is the largest among all cell lines, and the ratio can reach 4-5 times when inhibited at 4 hours, which was completely suitable for the screening of Wnt inhibitors in the later stage.
The Colo205-LUC-TCF/LEF M1 cell line is a reporter tool cell stably transfected with the pGL4.49-LUC2-TCF/LEF vector. The β-catenin Wnt pathway is continuously activated. After adding the inhibitor, the Wnt pathway is inhibited. The expression of firefly luciferase regulated by the TCF/LEF cis-element decreased, and after adding the detection substrate, the detected light signal decreased accordingly, so as to detect the inhibitory effect of the compound.
To a 96-well cell culture plate, add 100 uL of the compound with a maximum concentration of 20 uM to each well, and make a 3-fold serial dilution of the compound concentration. Then 10,000 colo205 cells stably transfected with the reporter gene and 100 uL medium were inoculated into each well, and corresponding positive and negative control wells were made at the same time. Put the cells in a 5% CO2 incubator and incubate at 37° C. for 4 hours. After 4 hours, remove the culture medium, add 100 μL of reagent (Promega) containing the corresponding firefly luciferase substrate to each well, and measure the activity of luciferase reporter gene. Luminescence intensity was read with SpectraMax in full wavelength mode. […]

The next test deals with H929. Briefly: Proliferation inhibition test, Wnt mutant cell line H929. The note with it: H929, 96 h culture with compound, read-out: Antiproliferation IC50 H929.
Description: as §1, §2

The subject of the next test is HepG2. Briefly: Proliferation inhibition test, Wnt mutant cell line HepG2. The note with it: HepG2, 96 h culture with compound, read-out: Antiproliferation IC50 HepG2.
Description: as §1, §2

This note sets out measurements from patent US20250163062A1, “WNT PATHWAY INHIBITOR COMPOUNDS” (ADLAI NORTYE BIOPHARMA CO., LTD., priority 2022, published 2025).

Where two headings read alike, the source gives them in different places. Where only a bound is given, the exact number is not on record here.

On to `CN1c2nc(NCc3ccc(Oc4ccc(C(F)(F)F)nc4N4CC(F)(F)C4)nc3)nc3c2N(CCC3)C(=O)[C@]1(C)CO` [Compound 21], for which the IC50 in the test on DU4475 (Homo sapiens, DU-4475, 96 h) is 4.83 nM; in the test with RKO (Homo sapiens), above 10 µM; in the test with Colo205 (Homo sapiens, COLO 205, 96 h), below 0.1 nM; in test [1], 4.94 nM; in the test with H929 (Homo sapiens, NCI-H929, 96 h), 255 nM; in the test with HepG2 (Homo sapiens, HepG2, 96 h), 1.52 nM.
For the compound `Cc1nc(C(F)(F)F)ncc1Oc1ccc(CNc2nc3c4c(n2)N(C)[C@@H]([C@@H](C)O)C(=O)N4CCC3)cn1` [Compound 23], the IC50 in the test with DU4475 (Homo sapiens, DU-4475, 96 h) was 16 nM; with RKO (Homo sapiens), above 10 µM; in the test on Colo205 (Homo sapiens, COLO 205, 96 h), 53.7 nM; in test [1], 64.7 nM; with H929 (Homo sapiens, NCI-H929, 96 h), 192 nM; in the test with HepG2 (Homo sapiens, HepG2, 96 h), 37.5 nM.
Turning to `CCc1nc(C(F)(F)F)ncc1Oc1ccc(CNc2nc3c4c(n2)N(C)[C@@](C)([C@H](C)O)C(=O)N4CCC3)cn1` [Compound 14, (S)-2-(((6-((4-ethyl-2-(trifluoromethyl)pyrimidin-5-yl)oxy)pyridin-3-yl)methyl)amino)-5-((S)-1-hydroxyethyl)-4,5-dimethyl-4,5,9,10-tetrahydro-6H,8H-pyrido[3,2,1-de]pteridin-6-one], the IC50 is above 10 µM in the test with RKO (Homo sapiens); 70.3 nM in the test with Colo205 (Homo sapiens, COLO 205, 96 h); 35.2 nM in test [1]; 79 nM in the test with HepG2 (Homo sapiens, HepG2, 96 h).
For `Cc1nc(C(F)(F)F)ncc1Oc1ccc(CNc2nc3c4c(n2)N(C)[C@@](C)([C@H](C)O)C(=O)N4CCC3)cn1` [Compound 22], the IC50 in the test with DU4475 was 38.6 nM; in the test on RKO, above 10 µM; with Colo205 it was 64.3 nM; in test [1] it was 90 nM; in the test with H929 it was 309 nM; in the test on HepG2, 224 nM.
In the case of `[2H]C([2H])([2H])N1c2nc(NCc3ccc(Oc4ccc(C(F)(F)F)nc4F)nc3)nc3c2N(CCC3)C(=O)[C@@H]1CO` [Compound 27], the IC50 in the test on DU4475 (Homo sapiens, DU-4475, 96 h) is 24.6 nM; with RKO (Homo sapiens) it was above 10 µM; in the test with Colo205 (Homo sapiens, COLO 205, 96 h), 22.8 nM; in test [1], 30.6 nM; with H929 (Homo sapiens, NCI-H929, 96 h), 90.2 nM; in the test with HepG2 (Homo sapiens, HepG2, 96 h), 38.3 nM.
As to `CN(c1nc(C(F)(F)F)ccc1Oc1ccc(CNc2nc3c4c(n2)N(C)[C@@](C)(CO)C(=O)N4CCC3)cn1)C1CC1` [Compound 20], the IC50 with DU4475 (Homo sapiens, DU-4475, 96 h) is below 0.1 nM; with RKO (Homo sapiens), above 10 µM; with Colo205 (Homo sapiens, COLO 205, 96 h), below 0.1 nM; in test [1], 1.46 nM; with H929 (Homo sapiens, NCI-H929, 96 h) it was 52 nM; in the test on HepG2 (Homo sapiens, HepG2, 96 h) it was 3.22 nM.
For `[2H]C([2H])([2H])N1c2nc(NCc3ccc(Oc4ccc(C(F)(F)F)nc4Cl)nc3)nc3c2N(CCC3)C(=O)[C@@H]1CO` [Compound 1, (S)-2-(((6-((2-chloro-6-(trifluoromethyl)pyridin-3-yl)oxy)pyridin-3-yl)methyl)amino)-5-(hydroxymethyl)-4-(methyl-d3)-4,5,9,10-tetrahydro-6H,8H-pyrido[3,2,1-de]pteridin-6-one], the IC50 with DU4475 (Homo sapiens, DU-4475, 96 h) was 3.17 nM; in the test on RKO (Homo sapiens) it was above 10 µM; with Colo205 (Homo sapiens, COLO 205, 96 h), 7.81 nM; in test [1], 15.5 nM; in the test with H929 (Homo sapiens, NCI-H929, 96 h) it was 40.3 nM; in the test on HepG2 (Homo sapiens, HepG2, 96 h), 1.45 nM.
As for `[2H]C([2H])([2H])N1c2nc(NCc3ccc(Oc4cnc(C(F)(F)F)nc4C)nc3)nc3c2N(CCC3)C(=O)[C@@H]1[C@@H](C)O` [Compound 24], the IC50 in the test on DU4475 (Homo sapiens, DU-4475, 96 h) is 23.2 nM; with RKO (Homo sapiens), above 10 µM; with Colo205 (Homo sapiens, COLO 205, 96 h) it was 46.5 nM; in test [1], 48 nM; in the test with H929 (Homo sapiens, NCI-H929, 96 h) it was 5.61 nM; in the test with HepG2 (Homo sapiens, HepG2, 96 h) it was 37 nM.
As for `CN1c2nc(NCc3ccc(Oc4ccc(C(F)(F)F)nc4F)nc3)nc3c2N(CCC3)C(=O)[C@@H]1CO` [Compound 26], the IC50 in the test on DU4475 (Homo sapiens, DU-4475, 96 h) is 12.1 nM; in the test with RKO (Homo sapiens), above 10 µM; in the test on Colo205 (Homo sapiens, COLO 205, 96 h), 18.9 nM; in test [1], 43.8 nM; in the test with H929 (Homo sapiens, NCI-H929, 96 h), 98.8 nM; in the test with HepG2 (Homo sapiens, HepG2, 96 h), 13.6 nM.
With `[2H]C([2H])([2H])N1c2nc(NCc3ccc(Oc4cnc(C(F)(F)F)nc4C4CC4)nc3)nc3c2N(CCC3)C(=O)[C@@H]1CO` [Compound 9, (S)-2-(((6-((4-cyclopropyl-2-(trifluoromethyl)pyrimidin-5-yl)oxy)pyridin-3-yl)methyl)amino)-5-(hydroxymethyl)-4-(methyl-d3)-4,5,9,10-tetrahydro-6H,8H-pyrido[3,2,1-de]pteridin-6-one], the IC50 with DU4475 (Homo sapiens, DU-4475, 96 h) was 0.46 nM; in the test with RKO (Homo sapiens), above 10 µM; in the test with Colo205 (Homo sapiens, COLO 205, 96 h), 8.43 nM; in test [1] it was 13.8 nM; with H929 (Homo sapiens, NCI-H929, 96 h), 36.4 nM; in the test on HepG2 (Homo sapiens, HepG2, 96 h), 11.3 nM.
Take `CN(C)c1nc(C(F)(F)F)ccc1Oc1ccc(CNc2nc3c4c(n2)N(C)[C@@](C)(CO)C(=O)N4CCC3)cn1` [Compound 15, (S)-2-(((6-((2-(dimethylamino)-6-(trifluoromethyl)pyridin-3-yl)oxy)pyridin-3-yl)methyl)amino)-5-(hydroxymethyl)-4,5-dimethyl-4,5,9,10-tetrahydro-6H,8H-pyrido[3,2,1-de]pteridin-6-one]: the IC50 was above 10 µM in the test on RKO (Homo sapiens); 1.35 nM with Colo205 (Homo sapiens, COLO 205, 96 h); below 0.1 nM in test [1]; 1.3 nM in the test on HepG2 (Homo sapiens, HepG2, 96 h).
On to `[2H]C([2H])([2H])N1c2nc(NCc3ccc(Oc4cnc(C(F)(F)F)nc4C)nc3)nc3c2N(CCC3)C(=O)[C@@H]1CO` [Compound 4, (S)-5-(Hydroxymethyl)-4-(methyl-d3)-2-(((6-((4-methyl-2-(trifluoromethyl)pyrimidin-5-yl)oxy)pyridin-3-yl)methyl)amino)-4,5,9,10-tetrahydro-6H,8H-pyrido[3,2,1-de]pteridin-6-one], for which the IC50 with DU4475 (Homo sapiens, DU-4475, 96 h) is 25.8 nM; in the test with RKO (Homo sapiens), above 10 µM; in the test on Colo205 (Homo sapiens, COLO 205, 96 h), 42.6 nM; in test [1], 66.3 nM; with H929 (Homo sapiens, NCI-H929, 96 h), 278 nM; in the test with HepG2 (Homo sapiens, HepG2, 96 h) it was 89.7 nM.
